# What was measured:
# Format in all cases: cell-based
# Mucor sp. = assay: Antimicrobial activity, agar well diffusion; details: Dose 0.6 mg/disk, dwell = 6 mm
# Method in brief: (§1)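 Inhibition-zone diameter around 6 mm wells holding 60 μL extract, measured at 24 h and 48 h; ≥18 mm counted as sensitive, 12–18 mm moderately sensitive, up to 12 mm or no zone resistant. Fungal spores were at 10^5 cfu/mL on MEA at 30 °C, bacterial and yeast cells at 10^8 cfu/mL.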
# [1] = tested on: Fusarium moniliforme ATCC 38932; assay: Antimicrobial activity, agar well diffusion; details: Dose 0.6 mg/disk, dwell = 6 mm
# Method in brief: as §1
# [2] = tested on: Candida albicans NBIMCC 74; assay: Antimicrobial activity, agar well diffusion; details: Dose 0.6 mg/disk, dwell = 6 mm
# Method in brief: as §1
# [3] = tested on: Saccharomyces cerevisiae ATCC 9763; assay: Antimicrobial activity, agar well diffusion; details: Dose 0.6 mg/disk, dwell = 6 mm
# Method in brief: as §1
# [4] = tested on: K-562, LAMA-84, T-24, CCL-1 cell lines; assay: MTT cell viability assay, cell line panel; details: leukemic cells LAMA-84 and K-562; read-out: IC50 estimates
# Method: Based on the PASS online and the ProToxII in silico calculations, the evaluation of the cytotoxic activity of the compounds was the other object of our investigation. A series of MTT experiments were conducted to evaluate the in vitro effects of the tested compounds on cell growth in both normal (murine fibroblast CCL-1 cells) and malignant human cell lines of leukemic (K-562, LAMA-84) and epithelial (T-24 bladder carcinoma cells) origin.
# To evaluate the biocompatibility of the hybrid compounds, their in vitro antiproliferative activity was assessed in a panel of human malignant cell lines of different origin (K-562 and LAMA-84 suspension-growing myeloid leukemia cells, positive for the Philadelphia chromosome, and the urothelial bladder carcinoma cell line T-24 of adherent type). Non-malignant murine fibroblast cells (CCL-1) were also used as a screening platform. […]
# The effects of the newly synthesized anthranilic derivatives on cell viability were measured using a validated colorimetric assay for evaluating cell viability, known as the Mosmann MTT method. […] The latter was dissolved in isopropyl alcohol solution containing 5% formic acid prior to absorbance measurement at 550 nm. Collected absorbance values were blanked against MTT and isopropanol solution and normalized to the mean value of untreated control (100% cell viability).
compound,measurement,setting,value
"Nc1ccccc1C(=O)NCCc1cccc(Cl)c1 [Compound 3, 2-amino-N-(3-chlorophenethyl)benzamide]",Inhibition Zones,Mucor sp.,15 mm
same,Inhibition Zones,[1],15 mm
same,Inhibition Zones,[2],15 mm
same,Inhibition Zones,[3],15 mm
"O=C(Nc1ccccc1C(=O)NCCc1cccc(Cl)c1)c1ccccc1 [Compound 4b, 2-benzamido-N-(3-chlorophenethyl)benzamide]",IC50,[4],30 to 60 µM

# From paper PMC10530836, “Synthesis, Molecular Docking, and Biological Evaluation of Novel Anthranilic Acid Hybrid and Its Diamides as Antispasmodics” (International Journal of Molecular Sciences, 2023)
